Results reported in PubChem BioAssay (NCI).
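Five concentrations, 48 hours, 96-well plates. At the TGI there is no net growth.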

Legend:
Test in all cases: growth of human tumour cells (NCI), 48 h
[1] = test system: IGROV1 ovarian
[2] = test system: HCT-116 colon
[3] = test system: MALME-3M melanoma
[4] = test system: MCF7 breast
[5] = test system: MOLT-4 leukemia
[6] = test system: HOP-92 NSCLC
[7] = test system: SR leukemia
[8] = test system: ACHN renal
[9] = test system: HOP-62 NSCLC
[10] = test system: BT-549 breast
[11] = test system: HCT-15 colon
[12] = test system: A549 NSCLC
[13] = test system: NCI-H522 lung
[14] = test system: U251 CNS
[15] = test system: SN12C renal
[16] = test system: NCI-H23 lung
[17] = test system: SK-MEL-2 melanoma
[18] = test system: OVCAR-8 ovarian
[19] = test system: HS 578T breast
[20] = test system: UO-31 renal
[21] = test system: NCI/ADR-RES ovarian
[22] = test system: DU-145 prostate
[23] = test system: SK-MEL-5 melanoma
[24] = test system: NCI-H460 lung
[25] = test system: HCC-2998 colon
[26] = test system: HT29 colon
[27] = test system: TK-10 renal
[28] = test system: LOX IMVI melanoma
[29] = test system: SF-268 CNS
[30] = test system: CCRF-CEM leukemia
[31] = test system: OVCAR-5 ovarian
[32] = test system: MDA-MB-435
[33] = test system: COLO 205 colon
[34] = test system: OVCAR-4 ovarian
[35] = test system: SNB-19 CNS
[36] = test system: SK-OV-3 ovarian
[37] = test system: PC-3 prostate
[38] = test system: OVCAR-3 ovarian
[39] = test system: A498 renal
[40] = test system: RPMI-8226 leukemia
[41] = test system: CAKI-1 renal
[42] = test system: NCI-H226 lung
[43] = test system: EKVX NSCLC
[44] = test system: SF-539 CNS
[45] = test system: KM12 colon
[46] = test system: SK-MEL-28 melanoma
[47] = test system: T-47D breast
[48] = test system: M14 melanoma
[49] = test system: UACC-257 melanoma
[50] = test system: UACC-62 melanoma
[51] = test system: MDA-N
[52] = test system: SNB-75 CNS
[53] = test system: HL-60(TB) leukemia
[54] = test system: 786-0 renal
[55] = test system: SF-295 CNS
[56] = test system: MDA-MB-231 breast
[57] = test system: SW-620 colon
[58] = test system: K-562 leukemia
[59] = test system: RXF 393 renal

SMILES: O=C(O)COc1cc(-c2ccccc2)nc2ccc(F)cc12
- TGI [1]: > 100 µM
- TGI [2]: > 100 µM
- TGI [3]: > 100 µM
- TGI [4]: > 100 µM
- TGI [5]: > 100 µM
- TGI [6]: > 100 µM
- TGI [7]: > 100 µM
- TGI [8]: > 100 µM
- TGI [9]: > 100 µM
- TGI [10]: > 100 µM
- TGI [11]: > 100 µM
- TGI [12]: > 100 µM
- TGI [13]: > 100 µM
- TGI [14]: > 100 µM
- TGI [15]: > 100 µM
- TGI [16]: > 100 µM
- TGI [17]: > 100 µM
- TGI [18]: > 100 µM
- TGI [19]: > 100 µM
- TGI [20]: > 100 µM
- TGI [21]: > 100 µM
- TGI [22]: > 100 µM
- TGI [23]: > 100 µM
- TGI [24]: > 100 µM
- TGI [25]: > 100 µM
- TGI [26]: > 100 µM
- TGI [27]: > 100 µM
- TGI [28]: > 100 µM
- TGI [29]: > 100 µM
- TGI [30]: > 100 µM
- TGI [31]: > 100 µM
- TGI [32]: > 100 µM
- TGI [33]: > 100 µM
- TGI [34]: > 100 µM
- TGI [35]: > 100 µM
- TGI [36]: > 100 µM
- TGI [37]: > 100 µM
- TGI [38]: > 100 µM
- TGI [39]: > 100 µM
- TGI [40]: > 100 µM
- TGI [41]: > 100 µM
- TGI [42]: > 100 µM
- TGI [43]: > 100 µM
- TGI [44]: > 100 µM
- TGI [45]: > 100 µM
- TGI [46]: > 100 µM
- TGI [47]: > 100 µM
- TGI [48]: > 100 µM
- TGI [49]: > 100 µM
- TGI [50]: > 100 µM
- TGI [51]: > 100 µM
- TGI [52]: > 100 µM
- TGI [53]: > 100 µM
- TGI [54]: > 100 µM
- TGI [55]: > 100 µM
- TGI [56]: > 100 µM
- TGI [57]: > 100 µM
- TGI [58]: > 100 µM

SMILES: O=c1oc2ccc(Cl)cc2cc1C1=CSC2=NCCN12
- TGI [1]: 34 µM
- TGI [2]: 32 µM
- TGI [3]: 79.7 µM
- TGI [4]: 40.1 µM
- TGI [5]: 36.4 µM
- TGI [6]: 48.3 µM
- TGI [7]: 34.6 µM
- TGI [8]: > 100 µM
- TGI [9]: 34.3 µM
- TGI [10]: 37.9 µM
- TGI [11]: 41.6 µM
- TGI [12]: > 100 µM
- TGI [13]: 34.5 µM
- TGI [14]: 56.2 µM
- TGI [15]: 32.7 µM
- TGI [16]: 47.4 µM
- TGI [17]: 55.8 µM
- TGI [18]: 38.7 µM
- TGI [19]: 93 µM
- TGI [20]: 51.4 µM
- TGI [21]: > 100 µM
- TGI [22]: 36.2 µM
- TGI [23]: 34.2 µM
- TGI [24]: > 100 µM
- TGI [25]: 29.4 µM
- TGI [59]: 49.5 µM
- TGI [26]: 36.3 µM
- TGI [27]: 84.4 µM
- TGI [28]: 35.1 µM
- TGI [29]: 33.4 µM
- TGI [30]: 47 µM
- TGI [31]: > 100 µM
- TGI [32]: 57.8 µM
- TGI [33]: 41.5 µM
- TGI [34]: 65.4 µM
- TGI [35]: 67.7 µM
- TGI [36]: > 100 µM
- TGI [37]: 49.2 µM
- TGI [38]: 35.5 µM
- TGI [40]: 44.1 µM
- TGI [41]: > 100 µM
- TGI [43]: 51.6 µM
- TGI [44]: 72 µM
- TGI [45]: 41.3 µM
- TGI [46]: 80.1 µM
- TGI [47]: 79.7 µM
- TGI [48]: > 100 µM
- TGI [49]: > 100 µM
- TGI [50]: 40.4 µM
- TGI [51]: 47.4 µM
- TGI [52]: > 100 µM
- TGI [53]: 61 µM
- TGI [54]: 33.4 µM
- TGI [55]: 59.1 µM
- TGI [56]: 40.9 µM
- TGI [57]: 49.1 µM
- TGI [58]: 36.8 µM

SMILES: COCOc1cc(OC)ccc1C/C=N/O
- TGI [1]: > 100 µM
- TGI [2]: > 100 µM
- TGI [3]: > 100 µM
- TGI [4]: > 100 µM
- TGI [5]: > 100 µM
- TGI [6]: > 100 µM
- TGI [7]: > 100 µM
- TGI [8]: > 100 µM
- TGI [9]: > 100 µM
- TGI [10]: > 100 µM
- TGI [11]: > 100 µM
- TGI [12]: > 100 µM
- TGI [13]: > 100 µM
- TGI [14]: > 100 µM
- TGI [15]: > 100 µM
- TGI [16]: > 100 µM
- TGI [17]: > 100 µM
- TGI [18]: > 100 µM
- TGI [19]: > 100 µM
- TGI [20]: > 100 µM
- TGI [21]: > 100 µM
- TGI [22]: > 100 µM
- TGI [23]: > 100 µM
- TGI [24]: > 100 µM
- TGI [25]: > 100 µM
- TGI [59]: > 100 µM
- TGI [26]: > 100 µM
- TGI [27]: > 100 µM
- TGI [28]: > 100 µM
- TGI [29]: > 100 µM
- TGI [30]: > 100 µM
- TGI [31]: > 100 µM
- TGI [32]: > 100 µM
- TGI [33]: > 100 µM
- TGI [34]: > 100 µM
- TGI [35]: > 100 µM
- TGI [36]: > 100 µM
- TGI [37]: > 100 µM
- TGI [38]: > 100 µM
- TGI [41]: > 100 µM
- TGI [42]: > 100 µM
- TGI [43]: > 100 µM
- TGI [44]: > 100 µM
- TGI [45]: > 100 µM
- TGI [46]: > 100 µM
- TGI [47]: > 100 µM
- TGI [48]: > 100 µM
- TGI [49]: > 100 µM
- TGI [50]: > 100 µM
- TGI [51]: > 100 µM
- TGI [53]: > 100 µM
- TGI [54]: > 100 µM
- TGI [55]: > 100 µM
- TGI [56]: > 100 µM
- TGI [57]: > 100 µM
- TGI [58]: > 100 µM
